Measurements reported in ChEMBL document CHEMBL1201862, “PubChem BioAssay data set” (2004).
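Following 48 hours of exposure in 96-well plates, responses at five concentrations were used to interpolate endpoints linearly. The concentration for 50% growth inhibition is given as GI50.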 Activity calls are given as the source filed them. Cut-off read from the data, not from the text of the source: active = GI50 up to about 1.1 µM and inactive = higher.

What was measured:
Assay in all cases: inhibition of tumour cell growth, NCI panel, 48 h
[1] = test system: SF-268
[2] = test system: NCI/ADR-RES
[3] = test system: A498
[4] = test system: SR
[5] = test system: SNB-19
[6] = test system: SK-MEL-28
[7] = test system: HCT-15
[8] = test system: HOP-62
[9] = test system: MDA-MB-231
[10] = test system: MDA-MB-435
[11] = test system: IGROV-1
[12] = test system: OVCAR-3
[13] = test system: OVCAR-4
[14] = test system: A549
[15] = test system: M14
[16] = test system: NCI-H23
[17] = test system: SK-MEL-5
[18] = test system: K562
[19] = test system: NCI-H522
[20] = test system: SF-539

Row | Structure (SMILES) | GI50 [1] | GI50 [2] | GI50 [3] | GI50 [4] | GI50 [5] | GI50 [6] | GI50 [7] [µM] | GI50 [8] | GI50 [9] | GI50 [10] | GI50 [11] | GI50 [12] | GI50 [13] | GI50 [14] | GI50 [15] | GI50 [16] | GI50 [17] | GI50 [18] | GI50 [19] | GI50 [20]
1 | C=C1CC[C@H](O)C(C)(C)[C@@H]1CC/C(C)=C/CC/C=C(\C)CC/C=C(\C)CCC=C(C)C | > 100 µM (inactive) | > 100 µM (inactive) | > 100 µM (inactive) | 59.6 µM (inactive) | > 100 µM (inactive) | > 100 µM (inactive) | 87.3 | > 100 µM (inactive) | > 100 µM (inactive) | > 100 µM (inactive) | > 100 µM (inactive) | > 100 µM (inactive) | > 100 µM (inactive) | > 100 µM (inactive) | > 100 µM (inactive) | 45.7 µM (inactive) | 54 µM (inactive) | > 100 µM (inactive) | 29 µM (inactive) | > 100 µM (inactive)
2 | O=C(CSCC(=O)N/N=C/c1cccc(O)c1)N/N=C/c1cccc(O)c1 | > 100 µM (inactive) | > 100 µM (inactive) | > 100 µM (inactive) | > 100 µM (inactive) | > 100 µM (inactive) | > 100 µM (inactive) | > 100 | > 100 µM (inactive) | > 100 µM (inactive) | > 100 µM (inactive) | > 100 µM (inactive) | > 100 µM (inactive) | > 100 µM (inactive) | > 100 µM (inactive) | > 100 µM (inactive) | > 100 µM (inactive) | > 100 µM (inactive) | > 100 µM (inactive) | > 100 µM (inactive) | > 100 µM (inactive)
3 | COC(=O)[C@@H]1C=CCN1S(=O)(=O)c1ccc(C)cc1 | > 100 µM (inactive) | > 100 µM (inactive) | > 100 µM (inactive) | 20.5 µM (inactive) | > 100 µM (inactive) | 93.1 µM (inactive) | 37.5 | > 100 µM (inactive) | > 100 µM (inactive) | 13.2 µM (inactive) | > 100 µM (inactive) | 50.8 µM (inactive) | > 100 µM (inactive) | > 100 µM (inactive) | 48.1 µM (inactive) | > 100 µM (inactive) | 59.6 µM (inactive) | 31.9 µM (inactive) | 98.4 µM (inactive) | 60.1 µM (inactive)
4 | CCCc1cn2c(/C=N/NC(=N)N)c(-c3ccc([N+](=O)[O-])cc3)nc2s1 | 2.16 µM (inactive) | 1.89 µM (inactive) | 5.26 µM (inactive) | 0.245 µM (active) | 1.71 µM (inactive) | 1.85 µM (inactive) | 1.36 | 1.77 µM (inactive) | 1.69 µM (inactive) | 1.63 µM (inactive) | 1.77 µM (inactive) | 0.548 µM (active) | 1.06 µM (active) | 1.71 µM (inactive) | 1.93 µM (inactive) | 1.61 µM (inactive) | 5.81 µM (inactive) | 0.286 µM (active) | 2.08 µM (inactive) | 4.88 µM (inactive)
5 | Fc1c(F)c(C(F)(F)F)c(F)c(F)c1N/N=C/c1cn(Cc2ccccc2)c2ccccc12 | 43.2 µM (inactive) | 24.7 µM (inactive) | 27.9 µM (inactive) | 22.9 µM (inactive) | 30.1 µM (inactive) | 34.8 µM (inactive) | 25.2 | 2.24 µM (inactive) | 21 µM (inactive) | 22.1 µM (inactive) | 27.5 µM (inactive) | 13.2 µM (inactive) | 23.4 µM (inactive) | 27.9 µM (inactive) | 18.2 µM (inactive) | 27.5 µM (inactive) | 18.2 µM (inactive) | 31 µM (inactive) | 23.7 µM (inactive) | 20 µM (inactive)
6 | CCCC(=O)Nc1cc([N+](=O)[O-])c([N+](=O)[O-])cc1OC | 16.3 µM (inactive) | 39.5 µM (inactive) | 15.7 µM (inactive) | 5.18 µM (inactive) | 17 µM (inactive) | 17 µM (inactive) | 8.87 | 12.6 µM (inactive) | 19.1 µM (inactive) | 18.4 µM (inactive) | 20.9 µM (inactive) | 14.6 µM (inactive) | 15.4 µM (inactive) | 13.7 µM (inactive) | 12.8 µM (inactive) | 18.2 µM (inactive) | 16.6 µM (inactive) | 17.5 µM (inactive) | 12.9 µM (inactive) | 20 µM (inactive)
7 | CCC(C)C1NC(=O)C(NC(=O)c2c3nc4c(C(=O)NC5C(=O)NC(C(C)CC)C(=O)N6CCCC6C(=O)N(C)CC(=O)N(C)C(C(C)C)C(=O)OC5C)ccc(C)c4oc-3c(C)c(=O)c2O)C(C)OC(=O)C(C(C)C)N(C)C(=O)CN(C)C(=O)C2CCCN2C1=O (stereo unspecified) | 3.77 µM (inactive) | 21.9 µM (inactive) | 2.84 µM (inactive) | 0.119 µM (active) | 11.5 µM (inactive) | 5.24 µM (inactive) | 16.6 | 2.99 µM (inactive) | 1.25 µM (inactive) | 4.92 µM (inactive) | 0.239 µM (active) | 3.24 µM (inactive) | 14.3 µM (inactive) | 2.47 µM (inactive) | 4.2 µM (inactive) | 5.41 µM (inactive) | 4.21 µM (inactive) | 0.74 µM (active) | 0.295 µM (active) | 0.838 µM (active)
8 | COC[C@H]1C(=O)NCC(=O)N2N=CCC[C@H]2C(=O)N(O)[C@H](C)C(=O)O[C@@H](C(C)C)[C@H](NC(=O)[C@@](C)(O)[C@]2(O)CC[C@@H](CC(C)C)[C@H](C)O2)C(=O)N2NCCC[C@@H]2C(=O)N1O | 0.0163 µM (active) | 0.316 µM (active) | 0.0412 µM (active) | 0.014 µM (active) | 0.0163 µM (active) | 0.0174 µM (active) | 0.12 | 0.0175 µM (active) | 0.0191 µM (active) | 0.0164 µM (active) | 0.0157 µM (active) | 0.0183 µM (active) | 0.0168 µM (active) | 0.019 µM (active) | 0.0183 µM (active) | 0.0163 µM (active) | 0.0156 µM (active) | 0.02 µM (active) | 0.0178 µM (active) | 0.0172 µM (active)
9 | Cn1c(=O)c2nc(CS(=O)(=O)Cc3nc4c(=O)n(C)c(=O)n(C)c4[nH]3)[nH]c2n(C)c1=O | > 100 µM (inactive) | > 100 µM (inactive) | > 100 µM (inactive) | > 100 µM (inactive) | > 100 µM (inactive) | > 100 µM (inactive) | > 100 | > 100 µM (inactive) | 40.6 µM (inactive) | > 100 µM (inactive) | > 100 µM (inactive) | > 100 µM (inactive) | 43.1 µM (inactive) | > 100 µM (inactive) | > 100 µM (inactive) | > 100 µM (inactive) | > 100 µM (inactive) | > 100 µM (inactive) | > 100 µM (inactive) | > 100 µM (inactive)
10 | O=c1[nH]c(Nc2nc3ccccc3[nH]2)nc(O)c1-c1ccccc1 | > 100 µM (inactive) | > 100 µM (inactive) | > 100 µM (inactive) | > 100 µM (inactive) | > 100 µM (inactive) | > 100 µM (inactive) | > 100 | > 100 µM (inactive) | > 100 µM (inactive) | > 100 µM (inactive) | > 100 µM (inactive) | > 100 µM (inactive) | > 100 µM (inactive) | > 100 µM (inactive) | > 100 µM (inactive) | > 100 µM (inactive) | > 100 µM (inactive) | > 100 µM (inactive) | > 100 µM (inactive) | > 100 µM (inactive)
11 | O=C(O)c1ccccc1/C=N\N=C1NCCN1 | > 100 µM (inactive) | > 100 µM (inactive) | > 100 µM (inactive) | > 100 µM (inactive) | > 100 µM (inactive) |  | > 100 | > 100 µM (inactive) | > 100 µM (inactive) | > 100 µM (inactive) | > 100 µM (inactive) | > 100 µM (inactive) | > 100 µM (inactive) | > 100 µM (inactive) | > 100 µM (inactive) | > 100 µM (inactive) | > 100 µM (inactive) | > 100 µM (inactive) | > 100 µM (inactive) | > 100 µM (inactive)
12 | COC(=O)[C@@]12C(=O)C(C)C(=O)[C@]1(C)C(C)=C[C@H]1[C@]3(C=O)CC[C@H](OC(C)=O)C(C)(C)[C@H]3CC[C@@]12C (stereo partly specified) | > 100 µM (inactive) | > 100 µM (inactive) | > 100 µM (inactive) | 7.48 µM (inactive) | > 100 µM (inactive) | > 100 µM (inactive) | > 100 | > 100 µM (inactive) | > 100 µM (inactive) | 97.3 µM (inactive) |  | > 100 µM (inactive) | > 100 µM (inactive) | > 100 µM (inactive) | > 100 µM (inactive) | > 100 µM (inactive) | > 100 µM (inactive) | 38.6 µM (inactive) | 51.9 µM (inactive) | > 100 µM (inactive)
13 | CC(C)[C@@H](C)[C@@]1(C)C[C@@H]1[C@@H](C)[C@H]1CC[C@@H]([C@@H]2CC=C3C[C@@H](O)CC[C@]3(C)C2=O)[C@]1(C)CCO | 15.5 µM (inactive) | 13.4 µM (inactive) | 15.3 µM (inactive) | 2.69 µM (inactive) | 12.6 µM (inactive) | 7.53 µM (inactive) | 5.27 | 17.3 µM (inactive) | 14.8 µM (inactive) | 11.9 µM (inactive) | 15.6 µM (inactive) | 12.8 µM (inactive) | 12.1 µM (inactive) |  |  | 14.1 µM (inactive) | 13.1 µM (inactive) | 3.49 µM (inactive) | 6.9 µM (inactive) | 12.6 µM (inactive)
